Patent US20140343000A1 (priority 2011, published 2014)
pEC50: −log10 of the molar value.

test system: recombinant NL4-3 virus (Renilla luciferase in nef, Gag P373S; NLRluc) in MT-2 cells; assay: whole plant or invertebrate; type: cell-based, HIV; settings: Renilla, NL43, luciferase activity in cells infected for 4-5 days with NLRluc recombinants, serial dilutions of inhibitor; class symbols (key in Table 1); read-out: EC50
Method in brief: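 MT-2 cells in RPMI 1640 with 10% heat-inactivated FBS were infected with the reporter virus, made by transfecting the proviral clone into 293T cells, and cultured 4-5 days with serial inhibitor dilutions. Antiviral activity was quantified from Renilla luciferase activity measured in lysed cells.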

Row | Compound | pEC50
1 | C=C(C)[C@@H]1CC[C@]2(NCCN(CCC(=O)O)CCC(=O)O)CC[C@]3(C)[C@H](CC[C@@H]4[C@@]5(C)CC=C(c6ccc(C(=O)O)cc6)C(C)(C)[C@@H]5CC[C@]43C)[C@@H]12 [Example 141, 3,3′-(2-((1R,3aS,5aR,5bR,7aR,11aS,11bR,13aR,13bR)-9-(4-carboxyphenyl)-5a,5b,8,8,11a-pentamethyl-1-(prop-1-en-2-yl)-2,3,3a,4,5,5a,5b,6,7,7a,8,11,11a,11b,12,13,13a,13b-octadecahydro-1H-cyclopenta[a]chrysen-3a-ylamino)ethylazanediyl)dipropanoic acid] | > 7.00
2 | C=C(C)[C@@H]1CC[C@]2(NCCS(C)(=O)=O)CC[C@]3(C)[C@H](CC[C@@H]4[C@@]5(C)CC=C(c6ccc(C(=O)O)cc6)C(C)(C)[C@@H]5CC[C@]43C)[C@@H]12 [Example 136, 4-((1R,3aS,5aR,5bR,7aR,11aS,11bR,13aR,13bR)-5a,5b,8,8,11a-pentamethyl-3a-(2-(methylsulfonyl)ethylamino)-1-(prop-1-en-2-yl)-2,3,3a,4,5,5a,5b,6,7,7a,8,11,11a,11b,12,13,13a,13b-octadecahydro-1H-cyclopenta[a]chrysen-9-yl)benzoic acid] | > 7.00
3 | C=C(C)[C@@H]1CC[C@]2(NCCN3CCN(C(=O)C4CC4)CC3)CC[C@]3(C)[C@H](CC[C@@H]4[C@@]5(C)CC=C(c6ccc(C(=O)O)cc6)C(C)(C)[C@@H]5CC[C@]43C)[C@@H]12 [Example B62, 4-((1R,3aS,5aR,5bR,7aR,11aS,11bR,13aR,13bR)-3a-((2-(4-(cyclopropanecarbonyl)piperazin-1-yl)ethyl)amino)-5a,5b,8,8,11a-pentamethyl-1-(prop-1-en-2-yl)-2,3,3a,4,5,5a,5b,6,7,7a,8,11,11a,11b,12,13,13a,13b-octadecahydro-1H-cyclopenta[a]chrysen-9-yl)benzoic acid] | > 7.00
4 | C=C(C)[C@@H]1CC[C@]2(NC(=O)NC3(C(=O)O)CC3)CC[C@]3(C)[C@H](CC[C@@H]4[C@@]5(C)CC=C(c6ccc(C(=O)O)cc6)C(C)(C)[C@@H]5CC[C@]43C)[C@@H]12 [Example 4, 4-((1R,3aS,5aR,5bR,7aR,11aS,11bR,13aR,13bR)-3a-(3-(1-carboxycyclopropyl)ureido)-5a,5b,8,8,11a-pentamethyl-1-(prop-1-en-2-yl)-2,3,3a,4,5,5a,5b,6,7,7a,8,11,11a,11b,12,13,13a,13b-octadecahydro-1H-cyclopenta[a]chrysen-9-yl)benzoic acid] | < 7.00
5 | C=C(C)[C@@H]1CC[C@]2(NC(=O)N(CCO)CCN3CCS(=O)(=O)CC3)CC[C@]3(C)[C@H](CC[C@@H]4[C@@]5(C)CC=C(c6ccc(C(=O)O)cc6)C(C)(C)[C@@H]5CC[C@]43C)[C@@H]12 [Example 65, 4-((1R,3aS,5aR,5bR,7aR,11aS,11bR,13aR,13bR)-3a-(((2-(1,1-dioxido-4-thiomorpholinyl)ethyl)(2-hydroxyethyl)carbamoyl)amino)-1-isopropenyl-5a,5b,8,8,11a-pentamethyl-2,3,3a,4,5,5a,5b,6,7,7a,8,11,11a,11b,12,13,13a,13b-octadecahydro-1H-cyclopenta[a]chrysen-9-yl)benzoic acid] | > 7.00
6 | C=C(C)[C@@H]1CC[C@]2(NC(=O)OCCCN3CCS(=O)(=O)CC3)CC[C@]3(C)[C@H](CC[C@@H]4[C@@]5(C)CC=C(c6ccc(C(=O)O)cc6)C(C)(C)[C@@H]5CC[C@]43C)[C@@H]12 [Example 70, benzoic acid, 4-[(1R,3aS,5aR,5bR,7aR,11aS,11bR,13aR,13bR)-3a-[[[3-(1,1-dioxido-4-thiomorpholinyl)propoxy]carbonyl]amino]2,3,3a,4,5,5a,5b,6,7,7a,8,11,11a,11b,12,13,13a,13b-octadecahydro-5a,5b,8,8,11a-pentamethyl-1-(1-methylethenyl)-1H-cyclopenta[a]chrysen-9-yl]] | > 7.00
7 | C=C(C)[C@@H]1CC[C@]2(NC(=O)C(=O)N(C)C)CC[C@]3(C)[C@H](CC[C@@H]4[C@@]5(C)CC=C(c6ccc(C(=O)O)cc6)C(C)(C)[C@@H]5CC[C@]43C)[C@@H]12 [Example 76, 4-((1R,3aS,5aR,5bR,7aR,11aS,11bR,13aR,13bR)-3a-(2-(dimethylamino)-2-oxoacetamido)-5a,5b,8,8,11a-pentamethyl-1-(prop-1-en-2-yl)-2,3,3a,4,5,5a,5b,6,7,7a,8,11,11a,11b,12,13,13a,13b-octadecahydro-1H-cyclopenta[a]chrysen-9-yl)benzoic acid] | > 7.00
8 | C=C(C)[C@@H]1CC[C@]2(NC(=O)N3CCN(C(=O)OC(C)(C)C)CC3CC(=O)O)CC[C@]3(C)[C@H](CC[C@@H]4[C@@]5(C)CC=C(c6ccc(C(=O)O)cc6)C(C)(C)[C@@H]5CC[C@]43C)[C@@H]12 (stereo partly drawn) [Example 59, 4-((1R,3aS,5aR,5bR,7aR,11aS,11bR,13aR,13bR)-3a-(4-(tert-butoxycarbonyl)-2-(carboxymethyl)piperazine-1-carboxamido)-5a,5b,8,8,11a-pentamethyl-1-(prop-1-en-2-yl)-2,3,3a,4,5,5a,5b,6,7,7a,8,11,11a,11b,12,13,13a,13b-octadecahydro-1H-cyclopenta[a]chrysen-9-yl)benzoic acid] | > 7.00
9 | C=C(C)[C@@H]1CC[C@]2(NCCN3CCN(S(=O)(=O)C4CC4)CC3)CC[C@]3(C)[C@H](CC[C@@H]4[C@@]5(C)CC=C(c6ccc(C(=O)O)cc6)C(C)(C)[C@@H]5CC[C@]43C)[C@@H]12 [Example B22, 4-((1R,3aS,5aR,5bR,7aR,11aS,11bR,13aR,13bR)-3a-((2-(4-(cyclopropylsulfonyl)piperazin-1-yl)ethyl)amino)-5a,5b,8,8,11a-pentamethyl-1-(prop-1-en-2-yl)-2,3,3a,4,5,5a,5b,6,7,7a,8,11,11a,11b,12,13,13a,13b-octadecahydro-1H-cyclopenta[a]chrysen-9-yl)benzoic acid] | > 7.00
10 | C=C(C)[C@@H]1CC[C@]2(NCCNc3nccn3C)CC[C@]3(C)[C@H](CC[C@@H]4[C@@]5(C)CC=C(c6ccc(C(=O)O)cc6)C(C)(C)[C@@H]5CC[C@]43C)[C@@H]12 [Example 191, 4-((1R,3aS,5aR,5bR,7aR,11aS,11bR,13aR,13bR)-5a,5b,8,8,11a-pentamethyl-3a-(2-(1-methyl-1H-imidazol-2-ylamino)ethylamino)-1-(prop-1-en-2-yl)-2,3,3a,4,5,5a,5b,6,7,7a,8,11,11a,11b,12,13,13a,13b-octadecahydro-1H-cyclopenta[a]chrysen-9-yl)benzoic acid] | > 7.00
11 | C=C(C)[C@@H]1CC[C@]2(NCCNc3ccc(C)nn3)CC[C@]3(C)[C@H](CC[C@@H]4[C@@]5(C)CC=C(c6ccc(C(=O)O)cc6)C(C)(C)[C@@H]5CC[C@]43C)[C@@H]12 [Example 194, 4-((1R,3aS,5aR,5bR,7aR,11aS,11bR,13aR,13bR)-5a,5b,8,8,11a-pentamethyl-3a-(2-(6-methylpyridazin-3-ylamino)ethylamino)-1-(prop-1-en-2-yl)-2,3,3a,4,5,5a,5b,6,7,7a,8,11,11a,11b,12,13,13a,13b-octadecahydro-1H-cyclopenta[a]chrysen-9-yl)benzoic acid] | > 7.00
12 | C=C(C)[C@@H]1CC[C@]2(NCc3cscn3)CC[C@]3(C)[C@H](CC[C@@H]4[C@@]5(C)CC=C(c6ccc(C(=O)O)cc6)C(C)(C)[C@@H]5CC[C@]43C)[C@@H]12 [Example 161, 4-((1R,3aS,5aR,5bR,7aR,11aS,11bR,13aR,13bR)-5a,5b,8,8,11a-pentamethyl-1-(prop-1-en-2-yl)-3a-(thiazol-4-ylmethylamino)-2,3,3a,4,5,5a,5b,6,7,7a,8,11,11a,11b,12,13,13a,13b-octadecahydro-1H-cyclopenta[a]chrysen-9-yl)benzoic acid] | > 7.00
13 | C=C(C)[C@@H]1CC[C@]2(NCCNC(=O)OC(C)(C)C)CC[C@]3(C)[C@H](CC[C@@H]4[C@@]5(C)CC=C(c6ccc(C(=O)O)cc6)C(C)(C)[C@@H]5CC[C@]43C)[C@@H]12 [Example 138, 4-((1R,3aS,5aR,5bR,7aR,11aS,11bR,13aR,13bR)-3a-(2-(tert-butoxycarbonylamino)ethylamino)-5a,5b,8,8,11a-pentamethyl-1-(prop-1-en-2-yl)-2,3,3a,4,5,5a,5b,6,7,7a,8,11,11a,11b,12,13,13a,13b-octadecahydro-1H-cyclopenta[a]chrysen-9-yl)benzoic acid] | > 7.00

same assay, conditions: Renilla, NL43, luciferase activity in cells infected for 4-5 days with NLRluc recombinants, serial dilutions of inhibitor; numeric values; read-out: EC50

Row | Compound | pEC50
14 | C=C(C)[C@@H]1CC[C@]2(NC(=O)N[C@H](CO)C(=O)O)CC[C@]3(C)[C@H](CC[C@@H]4[C@@]5(C)CC=C(c6ccc(C(=O)O)cc6)C(C)(C)[C@@H]5CC[C@]43C)[C@@H]12 [Example 20, 4-((1R,3aS,5aR,5bR,7aR,11aS,11bR,13aR,13bR)-3a-(3-((R)-1-carboxy-2-hydroxyethyl)ureido)-5a,5b,8,8,11a-pentamethyl-1-(prop-1-en-2-yl)-2,3,3a,4,5,5a,5b,6,7,7a,8,11,11a,11b,12,13,13a,13b-octadecahydro-1H-cyclopenta[a]chrysen-9-yl)benzoic acid] | 6.40
15 | CC(C)NC(=O)CN[C@]12CC[C@@H](C(C)C)[C@@H]1[C@H]1CC[C@@H]3[C@@]4(C)CC[C@H](c5ccc(C(=O)O)cc5)C(C)(C)[C@@H]4CC[C@@]3(C)[C@]1(C)CC2 [Example B9] | 8.00
16 | C=C(C)[C@@H]1CC[C@]2(NC(=O)N3CCN(C4CCCC4)C(=O)C3)CC[C@]3(C)[C@H](CC[C@@H]4[C@@]5(C)CC=C(c6ccc(C(=O)O)cc6)C(C)(C)[C@@H]5CC[C@]43C)[C@@H]12 [Example 37, 4-((1R,3aS,5aR,5bR,7aR,11aS,11bR,13aR,13bR)-3a-(4-cyclopentyl-3-oxopiperazine-1-carboxamido)-5a,5b,8,8,11a-pentamethyl-1-(prop-1-en-2-yl)-2,3,3a,4,5,5a,5b,6,7,7a,8,11,11a,11b,12,13,13a,13b-octadecahydro-1H-cyclopenta[a]chrysen-9-yl)benzoic acid] | 8.40
